Experimental data published in US9580390B2, “Indazole compounds as kinase inhibitors and method of treating cancer with same” (University Health Network, priority 2011, dated 2017).
Where two headings read alike, the source gives them in different places.

Tests used:
[1] = test system: colon cancer cells (HCT116); test: Cancer cell line growth inhibition (SRB assay); assay type: cell-based; settings: Homo sapiens, HCT-116, read-out: Cancer Cell Line GI50 Range HCT116
Procedure: Breast cancer cells (MDA-MB-231), colon cancer cells (HCT116) and ovarian cancer cells (PA-1) were seeded (1000 to 4000 in 80 μl per well depending on the cell growth rate) into 96 well plates 24 hours before compound overlay. Compounds were prepared as 10 mM stock solutions in 100% DMSO which were diluted with DMEM (Dulbecco's Modified Eagle's Medium) cell growth Medium (Invitrogen, Burlington, ON, Canada) containing 10% FBS (Fetal Bovine Serum) to concentrations ranging from 50 nM to 250 μM. Aliquots (20 μl) from each concentration were overlaid to 80 μl of the pre-seeded cells in the 96 well plates to make final concentrations of 10 nM to 50 μM. The cells were cultured for 5 days before the Sulforhodamine B assay (SRB) was performed to determine the compound's cell growth inhibition activity.
Sulforhodamine B (purchased from Sigma, Oakville, ON, Canada) is a water-soluble dye that binds to the basic amino acids of the cellular proteins. Thus, colorimetric measurement of the bound dye provides an estimate of the total protein mass that is related to the cell number. the cells are fixed in situ by gently aspirating off the culture media and adding 50 μl ice cold 10% Trichloroacetic Acid (TCA) per well and incubate at 4° C. for 30-60 min. The plates are washed with H2O five times and allowed to air dry for 5 min. Addition of 50 μl 0.4% (w/v) SRB solution in 1% (v/v) acetic acid to each well and incubation for 30 min at RT completes the staining reaction. Following staining, plates are washed four times with 1% acetic acid to remove unbound dye and then allowed to air dry for 5 min. The stain is solubilized with 100 μl of 10 mM Tris pH 10.5 per well. Absorbance is read at 570 nm.
The percentage (%) of relative growth inhibition was calculated by comparing to DMSO treated only cells (100%). GI50's were determined for compounds with cytotoxic activity. The GI50 was calculated using GraphPad PRISM software (GraphPad Software, Inc., San Diego, Calif., USA).

[2] = test system: ovarian cancer cells (PA-1); test: Cancer cell line growth inhibition (SRB assay); assay type: cell-based; settings: read-out: Cancer Cell Line GI50 Range PA-1
human PLK4 = biological target: T1, human PLK4 (Homo sapiens, UniProt O00444); test: PLK4 inhibition assay (indirect ELISA); assay type: biochemical; settings: 15 μM ATP
T1 construct: amino terminal GST fusion of residues 1-391 of human PLK4; made in house; host or cells: E. coli
T1 sequence (O00444 1-391): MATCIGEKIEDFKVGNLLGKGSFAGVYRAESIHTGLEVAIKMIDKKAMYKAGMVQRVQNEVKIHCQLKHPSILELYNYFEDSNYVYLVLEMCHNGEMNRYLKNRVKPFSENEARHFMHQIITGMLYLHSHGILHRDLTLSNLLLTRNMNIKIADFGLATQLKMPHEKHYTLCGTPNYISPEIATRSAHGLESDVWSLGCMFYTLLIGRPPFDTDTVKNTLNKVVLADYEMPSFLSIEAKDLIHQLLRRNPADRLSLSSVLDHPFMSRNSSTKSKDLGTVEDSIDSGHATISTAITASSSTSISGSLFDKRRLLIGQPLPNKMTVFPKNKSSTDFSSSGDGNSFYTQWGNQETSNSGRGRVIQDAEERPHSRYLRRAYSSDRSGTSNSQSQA
Procedure: Active PLK4 was purified from an E. coli expression system as an amino terminal GST fusion of residues 1-391 of human PLK4. The protein was purified from clarified cell extracts after induction at 15° C. overnight using glutathione sepharose, gel permeation chromatography, and ion exchange (Resource Q). The resulting protein was dephosphorylated with lambda phosphatase (NEB cat# P0753), and resolved from the phosphatase using gluthione sepharose. The dephosphorylated GST-PLK4 was stored in aliquots at −80° C. until use.
PLK4 activity was measured using an indirect ELISA detection system. Dephosphorylated GST-PLK4 (4 nM) was incubated in the presence of 15 μM ATP (Sigma cat# A7699), 50 mM HEPES-[…] pH 7.4, 10 mM MgCl2, 0.01% Brij 35 (Sigma cat# 03-3170), in a 96 well microtitre plate pre-coated with MBP (Millipore cat#30-011). The reaction was allowed to proceed for 30 minutes, followed by 5 washes of the plate with Wash Buffer (50 mM TRIS-Cl pH 7.4 and 0.2% Tween 20), and incubation for 30 minutes with a 1:3000 dilution of primary antibody (Cell Signaling cat# 9381). The plate was washed 5 times with Wash Buffer, incubated for 30 minutes in the presence of secondary antibody coupled to horse radish peroxidase (BioRad cat# 1721019, 1:3000 concentration), washed an additional 5 times with Wash Buffer, and incubated in the presence of TMB substrate (Sigma cat# T0440). The colourimetric reaction was allowed to continue for 5 minutes, followed by addition of stop solution (0.5 N sulphuric acid), and quantified by detection at 450 nm with either a monochromatic or filter based plate reader (Molecular Devices M5 or Beckman DTX880, respectively).
Compound inhibition was determined at either a fixed concentration (10 μM) or at a variable inhibitor concentration (typically 50 μM to 0.1 μM in a 10 point dose response titration). Compounds were pre-incubated in the presence of enzyme for 15 minutes prior to addition of ATP and the activity remaining quantified using the above described activity assay. The % Inhibition of a compound was determined using the following formula: % Inhibition=100×(1−(experimental value−background value)/(high activity control−background value)). The IC50 value was determined using a non-linear 4 point logistic curve fit (XLfit4, IDBS) with the formula: (A+(B/(1+((x/C)^D)))), where A=background value, B=range, C=inflection point, D=curve fit parameter.

human TTK = biological target: T2, human TTK (Homo sapiens, UniProt P33981); test: TTK inhibition assay (indirect ELISA); assay type: biochemical; settings: read-out: TTK IC50 Range
T2 construct: amino terminal GST fusion of full length human TTK; purchased Invitrogen
T2 sequence (P33981 1-857): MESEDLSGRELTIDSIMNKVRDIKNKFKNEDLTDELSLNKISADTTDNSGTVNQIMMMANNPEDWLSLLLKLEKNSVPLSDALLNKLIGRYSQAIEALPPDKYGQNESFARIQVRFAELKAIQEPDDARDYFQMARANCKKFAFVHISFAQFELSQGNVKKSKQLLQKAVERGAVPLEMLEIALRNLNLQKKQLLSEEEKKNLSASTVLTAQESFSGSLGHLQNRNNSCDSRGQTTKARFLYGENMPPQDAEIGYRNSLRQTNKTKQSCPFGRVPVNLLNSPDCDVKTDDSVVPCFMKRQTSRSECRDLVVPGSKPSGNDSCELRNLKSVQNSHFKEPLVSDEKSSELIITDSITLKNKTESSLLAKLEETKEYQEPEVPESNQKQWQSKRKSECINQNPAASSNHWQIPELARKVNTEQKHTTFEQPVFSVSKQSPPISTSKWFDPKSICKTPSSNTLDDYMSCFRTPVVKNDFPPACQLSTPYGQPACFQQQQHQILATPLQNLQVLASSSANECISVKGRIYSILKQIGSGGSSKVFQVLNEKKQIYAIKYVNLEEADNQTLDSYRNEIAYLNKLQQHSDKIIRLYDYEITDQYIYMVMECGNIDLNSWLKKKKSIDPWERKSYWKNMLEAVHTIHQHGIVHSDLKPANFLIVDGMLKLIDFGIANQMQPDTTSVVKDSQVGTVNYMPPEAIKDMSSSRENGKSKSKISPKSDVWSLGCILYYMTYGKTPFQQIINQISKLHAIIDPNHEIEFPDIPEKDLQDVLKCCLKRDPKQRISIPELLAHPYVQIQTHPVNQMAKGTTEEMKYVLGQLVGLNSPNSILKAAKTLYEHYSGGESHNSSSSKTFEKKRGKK

Breast cancer cells = test: Cancer cell line growth inhibition (SRB assay); assay type: cell-based; settings: Homo sapiens; MDA-MB-468; read-out: Cancer Cell Line GI50 Range MDA-MB-468

Structure (SMILES)	GI50 ([1]; HCT116 colon cancer cells, SRB assay) [nM]	GI50 ([2]; PA-1 ovarian cancer cells, SRB assay) [nM]	IC50 (human PLK4) [nM]	IC50 (human TTK) [nM]	GI50 (Breast cancer cells) [nM]	GI50 [1] [nM]	GI50 ([2]; Homo sapiens, PA-1) [nM]
CN1CCC(Oc2ccc(-c3n[nH]c4ccc(NC(=O)C(c5ccccc5F)C5CCCC5)cc34)cc2)CC1 (centres unmarked) [Example A162, 2-cyclopentyl-2-(2-fluorophenyl)-N-(3-(4-((1-methylpiperidin-4-yl)oxy)phenyl)-1H-indazol-5-yl)acetamide]	100 to 500	100 to 500	< 50	–	–	–	–
O=C(N[C@@H](c1ccsc1)C1CCCC1)c1ccc2[nH]nc(-c3ccc(OC4CCN(CCO)CC4)cc3)c2c1 [Example A219, (R)-N-(cyclopentyl(thiophen-3-yl)methyl)-3-(4-((1-(2-hydroxyethyl)piperidin-4-yl)oxy)phenyl)-1H-indazole-5-carboxamide]	–	–	< 50	< 100	100 to 500	100 to 500	< 100
C[C@@H](O)CN1CCC(Oc2ccc(-c3n[nH]c4ccc(C(=O)N[C@H](c5ccsc5)C5CC5)cc34)cc2)CC1 [Example A220, N-((S)-cyclopropyl(thiophen-3-yl)methyl)-3-(4-((1-((R)-2-hydroxypropyl)piperidin-4-yl)oxy)phenyl)-1H-indazole-5-carboxamide]	–	–	< 50	< 100	100 to 500	100 to 500	< 100
CN1C2CCC1CC(Oc1ccc(-c3n[nH]c4ccc(C(=O)N[C@H](c5ccsc5)C5CCCC5)cc34)cc1)C2 (stereo partly drawn) [Example A248, N-((S)-cyclopentyl(thiophen-3-yl)methyl)-3-(4-(((1R,3R,5S)-8-methyl-8-azabicyclo[3.2.1]octan-3-yl)oxy)phenyl)-1H-indazole-5-carboxamide]	–	–	< 50	< 100	100 to 500	100 to 500	100 to 500
CN1CCC2(CCc3cc(-c4n[nH]c5ccc(C(=O)N[C@H](c6ccccc6)C6CC6)cc45)ccc3O2)CC1 [Example A249, (S)-N-(cyclopropyl(phenyl)methyl)-3-(1′-methylspiro[chroman-2,4′-piperidin]-6-yl)-1H-indazole-5-carboxamide]	–	–	< 50	< 100	100 to 500	100 to 500	100 to 500
CC(C)[C@H](NC(=O)c1ccc2[nH]nc(-c3ccc4c(c3)CCC3(CCN(C)CC3)O4)c2c1)c1ccccc1Cl [Example A250, (S)-N-(1-(2-chlorophenyl)-2-methylpropyl)-3-(1′-methylspiro[chroman-2,4′-piperidin]-6-yl)-1H-indazole-5-carboxamide]	–	–	< 50	< 100	100 to 500	< 100	< 100
CN1CCC2(CCc3cc(-c4n[nH]c5ccc(C(=O)N[C@H](c6ccccn6)C6CCCC6)cc45)ccc3O2)CC1 [Example A253, (S)-N-(cyclopentyl(pyridin-2-yl)methyl)-3-(1′-methylspiro[chroman-2,4′-piperidin]-6-yl)-1H-indazole-5-carboxamide]	–	–	< 50	< 100	100 to 500	< 100	< 100
CC(C)C[C@H](NC(=O)c1ccc2[nH]nc(-c3ccc(N4CCN(C5COC5)CC4)cc3)c2c1)c1ccccc1F [Example A275, (S)-N-(1-(2-fluorophenyl)-3-methylbutyl)-3-(4-(4-(oxetan-3-yl)piperazin-1-yl)phenyl)-1H-indazole-5-carboxamide]	–	–	< 50	< 100	< 100	< 100	< 100
CC(C)[C@H](NC(=O)c1ccc2[nH]nc(-c3ccc(OC4CN(C5COC5)C4)cc3)c2c1)c1ccccc1Cl [Example A296, (S)-N-(1-(2-chlorophenyl)-2-methylpropyl)-3-(4-((1-(oxetan-3-yl)azetidin-3-yl)oxy)phenyl)-1H-indazole-5-carboxamide]	–	–	< 50	< 100	–	< 100	< 100
CC(C)(C)CC(NC(=O)c1ccc2[nH]nc(-c3ccc(N4CCN(C5COC5)CC4)cc3)c2c1)c1ccccc1F (centres unmarked) [Example A308, N-(1-(2-fluorophenyl)-3,3-dimethylbutyl)-3-(4-(4-(oxetan-3-yl)piperazin-1-yl)phenyl)-1H-indazole-5-carboxamide]	–	–	< 50	< 100	–	–	–
O=C(NC(c1ccsc1)C1CCC1)c1ccc2[nH]nc(-c3ccc(OC4CCN(C5COC5)CC4)cc3)c2c1 (centres unmarked) [Example A331, N-(cyclobutyl(thiophen-3-yl)methyl)-3-(4-((1-(oxetan-3-yl)piperidin-4-yl)oxy)phenyl)-1H-indazole-5-carboxamide]	–	–	< 50	< 100	–	< 100	< 100
O=C(N[C@H](c1ccccc1)C1CC1)c1ccc2[nH]nc(-c3ccc(OC4CC5CCC(C4)N5C4COC4)cc3)c2c1 (stereo partly drawn) [Example A336, N-((S)-cyclopropyl(phenyl)methyl)-3-(4-(((1R,3R,5S)-8-(oxetan-3-yl)-8-azabicyclo[3.2.1]octan-3-yl)oxy)phenyl)-1H-indazole-5-carboxamide]	–	–	< 50	< 100	–	100 to 500	100 to 500
CCC(CNC(=O)c1ccc2[nH]nc(-c3ccc(OC4CCN(C)CC4)cc3)c2c1)c1ccccc1 (centres unmarked) [Example A408, 3-(4-((1-methylpiperidin-4-yl)oxy)phenyl)-N-(2-phenylbutyl)-1H-indazole-5-carboxamide]	–	–	< 50	< 100	–	–	–
CC(C)(C)C[C@H](NC(=O)c1ccc2[nH]nc(-c3ccc(N4C5COCC4CC(O)C5)cc3)c2c1)c1ccccc1 (stereo partly drawn) [Example A426, N-((S)-3,3-dimethyl-1-phenylbutyl)-3-(4-((1R,5S,7R)-7-hydroxy-3-oxa-9-azabicyclo[3.3.1]nonan-9-yl)phenyl)-1H-indazole-5-carboxamide]	–	–	< 50	< 100	–	–	–
